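Test compounds were applied to cells in 96-well plates for 48 hours at 5 doses. Abbreviation: GI50, concentration required for 50% inhibition of growth. TGI is the concentration that stops growth completely.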
Experiments:
Assay in all cases: NCI-60 cell line screen, 48 h
786-0 renal = tested on: 786-0 renal
A498 renal = tested on: A498 renal
A549 NSCLC = tested on: A549 NSCLC
ACHN renal = tested on: ACHN renal
BT-549 breast = tested on: BT-549 breast
CAKI-1 renal = tested on: CAKI-1 renal
CCRF-CEM leukemia = tested on: CCRF-CEM leukemia
COLO 205 colon = tested on: COLO 205 colon
DU-145 prostate = tested on: DU-145 prostate
EKVX NSCLC = tested on: EKVX NSCLC
HCC-2998 colon = tested on: HCC-2998 colon
HCT-116 colon = tested on: HCT-116 colon
HCT-15 colon = tested on: HCT-15 colon
HL-60(TB) leukemia = tested on: HL-60(TB) leukemia
HOP-62 NSCLC = tested on: HOP-62 NSCLC
HOP-92 NSCLC = tested on: HOP-92 NSCLC
HS 578T breast = tested on: HS 578T breast
HT29 colon = tested on: HT29 colon
IGROV1 ovarian = tested on: IGROV1 ovarian
K-562 leukemia = tested on: K-562 leukemia
KM12 colon = tested on: KM12 colon
LOX IMVI melanoma = tested on: LOX IMVI melanoma
M14 melanoma = tested on: M14 melanoma
MALME-3M melanoma = tested on: MALME-3M melanoma
MCF7 breast = tested on: MCF7 breast
MDA-MB-231 breast = tested on: MDA-MB-231 breast
MDA-MB-435 = tested on: MDA-MB-435
MOLT-4 leukemia = tested on: MOLT-4 leukemia
NCI-H226 lung = tested on: NCI-H226 lung
NCI-H23 lung = tested on: NCI-H23 lung
NCI-H460 lung = tested on: NCI-H460 lung
NCI-H522 lung = tested on: NCI-H522 lung
NCI/ADR-RES ovarian = tested on: NCI/ADR-RES ovarian
OVCAR-3 ovarian = tested on: OVCAR-3 ovarian
OVCAR-4 ovarian = tested on: OVCAR-4 ovarian
OVCAR-5 ovarian = tested on: OVCAR-5 ovarian
OVCAR-8 ovarian = tested on: OVCAR-8 ovarian
PC-3 prostate = tested on: PC-3 prostate
RPMI-8226 leukemia = tested on: RPMI-8226 leukemia
RXF 393 renal = tested on: RXF 393 renal
SF-268 CNS = tested on: SF-268 CNS
SF-295 CNS = tested on: SF-295 CNS
SF-539 CNS = tested on: SF-539 CNS
SK-MEL-2 melanoma = tested on: SK-MEL-2 melanoma
SK-MEL-28 melanoma = tested on: SK-MEL-28 melanoma
SK-MEL-5 melanoma = tested on: SK-MEL-5 melanoma
SK-OV-3 ovarian = tested on: SK-OV-3 ovarian
SN12C renal = tested on: SN12C renal
SNB-19 CNS = tested on: SNB-19 CNS
SNB-75 CNS = tested on: SNB-75 CNS
SR leukemia = tested on: SR leukemia
SW-620 colon = tested on: SW-620 colon
T-47D breast = tested on: T-47D breast
TK-10 renal = tested on: TK-10 renal
U251 CNS = tested on: U251 CNS
UACC-257 melanoma = tested on: UACC-257 melanoma
UACC-62 melanoma = tested on: UACC-62 melanoma
UO-31 renal = tested on: UO-31 renal

COc1cc(CCC[P+](c2ccccc2)(c2ccccc2)c2ccccc2)c(OC)c2c1OCO2
GI50 (786-0 renal): 3.44 µM | TGI (786-0 renal): 16.5 µM | GI50 (A498 renal): 1.41 µM | TGI (A498 renal): 4.28 µM | GI50 (A549 NSCLC): 3.95 µM | TGI (A549 NSCLC): 68.9 µM | GI50 (ACHN renal): 4.07 µM | TGI (ACHN renal): 21 µM | GI50 (BT-549 breast): 1.08 µM | TGI (BT-549 breast): 8.5 µM | GI50 (CAKI-1 renal): 2.42 µM | TGI (CAKI-1 renal): 7.18 µM | GI50 (CCRF-CEM leukemia): 1.61 µM | TGI (CCRF-CEM leukemia): > 100 µM | GI50 (COLO 205 colon): 0.907 µM | TGI (COLO 205 colon): 3.38 µM | GI50 (DU-145 prostate): 3.21 µM | TGI (DU-145 prostate): 74.5 µM | GI50 (EKVX NSCLC): 2.83 µM | TGI (EKVX NSCLC): 35.2 µM | GI50 (HCC-2998 colon): 2.21 µM | TGI (HCC-2998 colon): 13.3 µM | GI50 (HCT-116 colon): 0.989 µM | TGI (HCT-116 colon): 16.2 µM | GI50 (HCT-15 colon): 13.4 µM | TGI (HCT-15 colon): > 100 µM | GI50 (HL-60(TB) leukemia): 0.387 µM | TGI (HL-60(TB) leukemia): 2.35 µM | GI50 (HOP-62 NSCLC): 2.91 µM | TGI (HOP-62 NSCLC): 11.3 µM | GI50 (HOP-92 NSCLC): 1.15 µM | TGI (HOP-92 NSCLC): 6.88 µM | GI50 (HS 578T breast): 1.74 µM | TGI (HS 578T breast): 8.54 µM | GI50 (HT29 colon): 0.812 µM | TGI (HT29 colon): 41 µM | GI50 (IGROV1 ovarian): 1 µM | TGI (IGROV1 ovarian): 11.7 µM | GI50 (K-562 leukemia): 0.659 µM | TGI (K-562 leukemia): > 100 µM | GI50 (KM12 colon): 0.828 µM | TGI (KM12 colon): 6.59 µM | GI50 (LOX IMVI melanoma): 2.48 µM | TGI (LOX IMVI melanoma): 12.1 µM | GI50 (M14 melanoma): 1.8 µM | TGI (M14 melanoma): 13.7 µM | GI50 (MALME-3M melanoma): 0.602 µM | TGI (MALME-3M melanoma): 6.92 µM | GI50 (MCF7 breast): 1.82 µM | TGI (MCF7 breast): 12.9 µM | GI50 (MDA-MB-231 breast): 2.11 µM | TGI (MDA-MB-231 breast): 10.3 µM | GI50 (MDA-MB-435): 0.494 µM | TGI (MDA-MB-435): 5.91 µM | GI50 (MOLT-4 leukemia): 3.33 µM | TGI (MOLT-4 leukemia): 18.9 µM | GI50 (NCI-H226 lung): 3.13 µM | TGI (NCI-H226 lung): 21.3 µM | GI50 (NCI-H23 lung): 1.67 µM | TGI (NCI-H23 lung): 10.3 µM | GI50 (NCI-H460 lung): 1.81 µM | TGI (NCI-H460 lung): 5.58 µM | GI50 (NCI-H522 lung): 1.43 µM | TGI (NCI-H522 lung): 12.1 µM | GI50 (NCI/ADR-RES ovarian): 77.5 µM | TGI (NCI/ADR-RES ovarian): > 100 µM | GI50 (OVCAR-3 ovarian): 0.633 µM | TGI (OVCAR-3 ovarian): 10.7 µM | GI50 (OVCAR-4 ovarian): 1.08 µM | TGI (OVCAR-4 ovarian): 16.1 µM | GI50 (OVCAR-5 ovarian): 2.38 µM | TGI (OVCAR-5 ovarian): 37 µM | GI50 (OVCAR-8 ovarian): 2.36 µM | TGI (OVCAR-8 ovarian): 24.2 µM | GI50 (PC-3 prostate): 1.55 µM | TGI (PC-3 prostate): > 100 µM | GI50 (RPMI-8226 leukemia): 0.283 µM | TGI (RPMI-8226 leukemia): 1.87 µM | GI50 (RXF 393 renal): 2.01 µM | TGI (RXF 393 renal): 8.43 µM | GI50 (SF-268 CNS): 2.13 µM | TGI (SF-268 CNS): 13.1 µM | GI50 (SF-295 CNS): 2.37 µM | TGI (SF-295 CNS): 7.39 µM | GI50 (SF-539 CNS): 2.31 µM | TGI (SF-539 CNS): 12.6 µM | GI50 (SK-MEL-2 melanoma): 1.9 µM | TGI (SK-MEL-2 melanoma): 10.5 µM | GI50 (SK-MEL-28 melanoma): 0.875 µM | TGI (SK-MEL-28 melanoma): 14 µM | GI50 (SK-MEL-5 melanoma): 1.21 µM | TGI (SK-MEL-5 melanoma): 2.5 µM | GI50 (SK-OV-3 ovarian): 2.02 µM | TGI (SK-OV-3 ovarian): 6.41 µM | GI50 (SN12C renal): 2.56 µM | TGI (SN12C renal): 10.5 µM | GI50 (SNB-19 CNS): 1.17 µM | TGI (SNB-19 CNS): 10.9 µM | GI50 (SNB-75 CNS): 1.2 µM | TGI (SNB-75 CNS): 4.59 µM | GI50 (SR leukemia): 1.1 µM | TGI (SR leukemia): 13.3 µM | GI50 (SW-620 colon): 1.83 µM | TGI (SW-620 colon): 11.4 µM | GI50 (T-47D breast): 0.419 µM | TGI (T-47D breast): 14.7 µM | GI50 (TK-10 renal): 4.05 µM | TGI (TK-10 renal): 23.3 µM | GI50 (U251 CNS): 1.63 µM | TGI (U251 CNS): 17.5 µM | GI50 (UACC-257 melanoma): 0.378 µM | TGI (UACC-257 melanoma): 6.44 µM | GI50 (UACC-62 melanoma): 0.629 µM | TGI (UACC-62 melanoma): 4.27 µM | GI50 (UO-31 renal): 10.8 µM | TGI (UO-31 renal): 44.1 µM

From PubChem BioAssay (NCI)
